{"source": "patent US20260250412A1", "about": "“COMBINATION OF ANTIBODY-DRUG CONJUGATE AND ANTI-PD-1 ANTIBODY, AND USE THEREOF” (GENEQUANTUM HEALTHCARE (SUZHOU) CO., LTD., priority 2023, published 2026)", "key": {"[1]": {"tested_on": "human gastric cancer cells NCI-N87", "test": "Cell proliferation, CellTiter Glo, 96 h, NCI-N87", "assay_type": "cell-based", "settings": "NCI-N87, 96 h", "method": "Two thousand human pharyngeal squamous cells carcinoma FaDu with high TROP2 expression were seeded into 96-well plates in 100 μL of culture medium per well, and incubated overnight in a cell incubator at 37° C. and 5% CO2. […] A positive control group was set: 100 μL Puromycin at a concentration of 10 μg/mL was added to each well. A negative control group was set: 100 μL of complete medium of FaDu cells was added to each well. After the administration was completed, the cells were moved to the incubator and incubated for 96 h. The 96-well plate was removed from the 37° C. cell incubator and equilibrated to room temperature for 30 minutes. After the medium was discarded, 100 μL of DMEM and 50 μL of CellTiter Glo reagent were added to each well, and the cells were shaken in the dark at 200 rpm for 15 minutes, and the luminescent signal reflecting cell viability was detected by a microplate reader. The inhibitory effects of the tested drugs on the proliferation of human pharyngeal squamous cell carcinoma FaDu are as shown in FIG. 2 and Table 7.\nThe human pharyngeal squamous cells carcinoma FaDu in Example 2.1.1 were replaced with human gastric cancer cells NCI-N87 (100 μL per well containing 5000 cells), and the inhibitory effect of ADC-7 was evaluated using the same process."}, "[2]": {"tested_on": "Trop2 positive cancer cells NCI-N87", "test": "Cytotoxicity assay, CellTiter-Glo, 168 h, NCI-N87", "assay_type": "cell-based, human", "method": "(§1) In brief, 3000 to 5000 cells were plated in 96-well plates, and cells were able to attach overnight. Cells were treated with indicated drugs with various concentrations for 168 h. Cell viabilities were examined by CellTiter-Glo® Luminescent Cell Viability Assay, and percentage of cell viability was calculated."}, "[3]": {"tested_on": "Trop2 positive cancer cells FaDu", "test": "Cytotoxicity assay, CellTiter-Glo, 168 h, FaDu", "assay_type": "cell-based, human", "method": "as §1"}, "[4]": {"tested_on": "Trop2-positive cells BxPC-3 and Trop2-negative HepG2 cells", "test": "Bystander killing in BxPC-3/HepG2 co-culture assay (BxPC-3:HepG2=2:1)", "assay_type": "cell-based, human", "method": "(§2) After the treatment, the cells were moved to the incubator and incubated for 96 h. After the incubation, cells were digested, and washed once with 1×PBS, then transferred to a flow tube, and centrifuged at 2000 rpm for 3 min. The supernatant was then discarded, and the cell amount and cell viability were detected. […] The cells were washed with 1×PBS, the supernatant was discarded after centrifugation, 200 μL of 5 μg/mL human IgG Fe antibody was added, and the resulting cells were continued to incubate at 4° C. for 30 min after mixing. Finally, the cells were washed with 1×PBS, the supernatant was discarded after centrifugation, and the cells were resuspended in PBS, detected by flow cytometry and analyzed by FlowJo software."}, "[5]": {"tested_on": "human breast cancer cells MDA-MB-468", "test": "Cell proliferation, CellTiter Glo, 96 h, MDA-MB-468", "assay_type": "cell-based", "settings": "MDA-MB-468, 96 h"}, "[6]": {"tested_on": "Trop2-positive cells BxPC-3 and Trop2-negative cells HepG2", "test": "Bystander killing in BxPC-3/HepG2 co-culture assay (BxPC-3:HepG2=4:1)", "assay_type": "cell-based, human", "settings": "10 nM, 96 h", "method": "as §2"}, "[7]": {"tested_on": "human pancreatic cancer cells BxPC-3", "test": "Cell proliferation, CellTiter Glo, 96 h, BxPC-3", "assay_type": "cell-based", "settings": "BxPC-3, 96 h", "method": "A positive control group was set: 100 μL Puromycin at a concentration of 10 μg/mL was added to each well. […] After the administration was completed, the cells were moved to the incubator and incubated for 96 h. The 96-well plate was removed from the 37° C. cell incubator and equilibrated to room temperature for 30 minutes. After the medium was discarded, 100 μL of DMEM and 50 μL of CellTiter Glo reagent were added to each well, and the cells were shaken in the dark at 200 rpm for 15 minutes, and the luminescent signal reflecting cell viability was detected by a microplate reader."}, "[8]": {"tested_on": "FaDu mouse xenograft tumor", "test": "In vivo efficacy, FaDu mouse xenograft tumor", "parameters": "species or system BALB/c nude mice", "settings": "for Tumor volume (mm^3) Day 0: baseline at grouping", "method": "I. The logarithmic growth phase BxPC-3 were collected and the cell density was adjusted to 10×10^6 cells/mL with Matrigel buffer (PBS:Matrigel=1:1). 0.2 mL of the prepared BxPC-3 cell suspension was subcutaneously injected into the right scapula of SPF female BALB/c nude mice aged 6-8 weeks.\nII. The tumor diameter was measured with a vernier caliper and the tumor volume was calculated according to the formula V=0.5a×b^2 (where a is the longest diameter of the tumor and b is the shortest diameter of the tumor). […] Animals in each group were administered by tail vein injection, and the control group was given an equal volume of vehicle. The tumor volume of animals in each group was measured twice a week within 35 days after administration, and the tumor volume of animals on day 35 was compared between groups. T/C and TGI values were calculated using tumor volume. The calculation formula is as follows: T/C %=TRTV/CRTV×100% (TRTV: RTV of the treatment group; CRTV: RTV of the vehicle control group). The relative tumor volume (RTV) was calculated based on the results of tumor measurement, and the calculation formula was RTV=Vt/V0, where V0 was the average tumor volume measured at the time of grouping (i.e., D0), Vt was the average tumor volume at one measurement, and TRTV and CRTV took the same day of data.\nThe BxPC-3 pancreatic cancer cells in Example 3.3.1 were replaced with human pharyngeal squamous cells carcinoma FaDu, and 10 days after cell inoculation, when the average tumor volume was about 119 mm^3, animals were randomly divided into vehicle control group, […], with 6 animals in each group."}, "[9]": {"settings": "Table 6, same process as effect example 1.2"}}, "note": "Several values for one entry are separate records, joined by “and”; a condition that tells them apart may be missing. Identical values can stand only once."}
{"substance": "DS1062a", "values": [{"measurement": "inhibition of proliferation (in words)", "setting": "[1]", "value": "could inhibit the proliferation of NCI-N87 cells"}, {"measurement": "IC50", "setting": "[1]; Table 10", "value": 1.26, "unit": "nM"}, {"measurement": "IC50", "setting": "[2]", "value": 2.1, "unit": "nM"}, {"measurement": "IC50", "setting": "[3]", "value": 0.17, "unit": "nM"}, {"measurement": "Amount of cells (10^4) BxPC-3", "setting": "[4]; Table 5, 10 nM", "value": "12.25 10^4"}, {"measurement": "Amount of cells (10^4) HepG2", "setting": "[4]; Table 5, 10 nM", "value": "144.75 10^4"}, {"measurement": "Cell proportion (%) BxPC-3", "setting": "[4]; Table 5, 10 nM", "value": 7.8, "unit": "%"}, {"measurement": "Cell proportion (%) HepG2", "setting": "[4]; Table 5, 10 nM", "value": 92.2, "unit": "%"}, {"measurement": "Number of viable cells (10^4)", "setting": "[4]; Table 5, 10 nM, whole co-culture", "value": "157.0 10^4"}, {"measurement": "Amount of cells (10^4) BxPC-3", "setting": "[4]; [9]", "value": "12.25 10^4"}, {"measurement": "Amount of cells (10^4) HepG2", "setting": "[4]; [9]", "value": "144.75 10^4"}, {"measurement": "Cell proportion (%) BxPC-3", "setting": "[4]; [9]", "value": 7.8, "unit": "%"}, {"measurement": "Cell proportion (%) HepG2", "setting": "[4]; [9]", "value": 92.2, "unit": "%"}, {"measurement": "Number of viable cells (10^4)", "setting": "[4]; Table 6, same process as effect example 1.2, whole co-culture", "value": "157.0 10^4"}, {"measurement": "bystander killing effect (in words)", "setting": "[4]; effect example 1.3", "value": "had bystander killing effects"}, {"measurement": "inhibition of proliferation (in words)", "setting": "[5]", "value": "could inhibit the proliferation of MDA-MB-468 cells"}, {"measurement": "IC50", "setting": "[5]; Table 9", "value": 2.5, "unit": "nM"}, {"measurement": "Amount of cells (10^4) BxPC-3", "setting": "[6]; Table 4", "value": "10.88 10^4"}, {"measurement": "Amount of cells (10^4) HepG2", "setting": "[6]; Table 4", "value": "33.72 10^4"}, {"measurement": "Cell proportion (%) BxPC-3", "setting": "[6]; Table 4", "value": 24.4, "unit": "%"}, {"measurement": "Cell proportion (%) HepG2", "setting": "[6]; Table 4", "value": 75.6, "unit": "%"}, {"measurement": "Number of viable cells (10^4)", "setting": "[6]; Table 4, whole co-culture", "value": "44.6 10^4"}, {"measurement": "bystander killing effect (in words)", "setting": "[6]; effect example 1.1", "value": "had bystander killing effects"}, {"measurement": "inhibition of proliferation (in words)", "setting": "[7]", "value": "could inhibit the proliferation of BxPC-3 cells"}, {"measurement": "IC50", "setting": "[7]; Table 8", "value": 0.584, "unit": "nM"}, {"measurement": "Tumor volume (mm^3) Day 28", "setting": "[8]; Table 18, 3 mg/kg", "value": "28 mm^3 and 28 ± 14 mm^3"}, {"measurement": "T/C (%)", "setting": "[8]; Table 18, 3 mg/kg, Day 28", "value": 1.68, "unit": "%"}, {"measurement": "TGI (%)", "setting": "[8]; Table 18, 3 mg/kg, Day 28", "value": 106.11, "unit": "%"}, {"measurement": "Tumor volume (mm^3) Day 0", "setting": "[8]; Table 18, 3 mg/kg", "value": "123 ± 13", "unit": "mm^3"}, {"measurement": "Tumor volume (mm^3) Day 31", "setting": "[8]; Table 21, 2 mg/kg", "value": "296 mm^3 and 296 ± 125 mm^3"}, {"measurement": "T/C (%)", "setting": "[8]; Table 21, 2 mg/kg, Day 31", "value": 15.47, "unit": "%"}, {"measurement": "TGI (%)", "setting": "[8]; Table 21, 2 mg/kg, Day 31", "value": 90.15, "unit": "%"}, {"measurement": "Tumor volume (mm^3) Day 0", "setting": "[8]; Table 21, 2 mg/kg", "value": "119 ± 11", "unit": "mm^3"}, {"measurement": "tumor growth inhibition (in words)", "setting": "[8]; effect example 3.2.3, 3 mg/kg, after 28 days", "value": "could significantly inhibit FaDu tumor growth"}, {"measurement": "tumor growth inhibition (in words)", "setting": "[8]; effect example 3.3.3, 2 mg/kg, after 31 days", "value": "could significantly inhibit tumor growth"}]}
